Reference: patent US7265227B2, “Piperidine derivatives useful as modulators of chemokine receptor activity” (AstraZeneca AB, priority 2001, dated 2007)

How the values were obtained:
H1 = molecular target: T1, H1 (Cavia porcellus, UniProt P31389); test: Guinea-pig isolated trachea (histamine concentration effect curves); conditions: guinea-pig tracheal rings; histamine E/[A] curve after 60 minutes incubation with test compound
T1 construct: the trachea was cut into six ring segments each three cartilage bands wide and then suspended in 20 ml organ baths; from tissue; host or cells: guinea-pig isolated trachea (Dunkin-Hartley)
Experimental: Guinea-pig Isolated Trachea
(See for example, Harrison, R. W. S., Carswell, H. & Young, J. M. (1984) European J. Pharmacol., 106, 405-409.)
Male albino Dunkin-Hartley guinea-pigs (250 g) were killed by cervical dislocation and the whole trachea removed. After clearing the adherent connective tissue, the trachea was cut into six ring segments each three cartilage bands wide and then suspended in 20 ml organ baths containing Krebs-Henseleit solution of the following composition (MM): NaCl 117.6, NaH2PO4 0.9, NaHCO3 25.0, MgSO4 1.2, KCl 5.4, CaCl2 2.6 and glucose 11.1. The buffer was maintained at 37° C. and gassed with 5% CO2 in oxygen. Indomethacin (2.8 μM) was added to the Krebs solution to prevent development of smooth muscle tone due to the synthesis of cyclo-oxygenase products. […] Changes in isometric force were recorded on 2-channel Sekonic flat bed chart recorders. […]
Contraction responses were recorded as a percentage of the first curve maximum. […]
Experimental E/[A] curve data were analysed for the purposes of estimating the potencies (p[A50] values) of histamine in the absence and presence of the test compound. Affinity (pA2) values of test compounds were subsequently calculated using the following equation: log(r−1)=log[B]+pA2 where r=[A]50 in presence of test compound/[A]50 in absence of antagonist and [B] is the concentration of test compound.

[1] = tested on: eotaxin mediated human eosinophil chemotaxis; test: Human eosinophil chemotaxis; assay type: cell-based; conditions: human eosinophils from peripheral blood; eotaxin 0.1 to 100 nM; 1 hr at 37° C.
Experimental: Human Eosinophil Chemotaxis
Human eosinophils were isolated from EDTA anticoagulated peripheral blood as previously described (Hansel et al., J. Immunol. Methods, 1991, 145, 105-110). The cells were resuspended at 10×10^6 ml^−1 in RPMI containing 200 IU/ml penicillin, 200 μg/ml streptomycin sulfate and supplemented with 10% HIFCS, at room temperature.
Eosinophils (700 μl) were pre-incubated for 15 mins at 37° C. with 7 μl of either vehicle or compound (100× required final concentration in 10% DMSO). The chemotaxis plate (ChemoTx, 3μ, pore, Neuroprobe) was loaded by adding 28 μl of a concentration of eotaxin (0.1 to 100 nM) containing a concentration of a compound according to the Examples or solvent to the lower wells of the chemotaxis plate. The filter was then placed over the wells and 25 μl of eosinophil suspension were added to the top of the filter. The plate was incubated for 1 hr at 37° C. in a humidified incubator with a 95% air/5% CO2 atmosphere to allow chemotaxis.
The medium, containing cells that had not migrated, was carefully aspirated from above the filter and discarded. The filter was washed once with phosphate buffered saline (PBS) containing 5 mM EDTA to remove any adherent cells. […] The number of eosinophils migrating was quantified according to the method of Strath et al., J. Immunol. […]

T1 sequence (P31389 whole entry): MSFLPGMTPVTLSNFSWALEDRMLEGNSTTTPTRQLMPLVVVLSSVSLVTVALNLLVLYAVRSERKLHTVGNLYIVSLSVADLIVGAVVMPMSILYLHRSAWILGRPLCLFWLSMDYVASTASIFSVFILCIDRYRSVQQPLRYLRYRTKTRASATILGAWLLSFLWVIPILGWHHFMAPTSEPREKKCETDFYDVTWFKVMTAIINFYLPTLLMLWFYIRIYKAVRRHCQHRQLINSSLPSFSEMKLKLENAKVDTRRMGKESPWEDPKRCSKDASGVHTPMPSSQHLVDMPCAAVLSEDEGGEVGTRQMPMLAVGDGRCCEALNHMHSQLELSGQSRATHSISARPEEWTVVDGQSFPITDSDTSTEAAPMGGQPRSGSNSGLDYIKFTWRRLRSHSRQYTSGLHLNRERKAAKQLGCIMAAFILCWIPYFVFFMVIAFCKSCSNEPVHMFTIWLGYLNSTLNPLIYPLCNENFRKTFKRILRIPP

SMILES	melting point [°C]	H1 antagonism (H1)	antagonism of the eotaxin mediated human eosinophil chemotaxis [1]
O=C(NS(=O)(=O)NCCCN1CCC(Oc2ccc(Cl)c(Cl)c2)CC1)c1ccccc1 [Example 18, N-benzoyl-N′-[3-[4-(3,4-dichlorophenoxy)-1-piperidinyl]propyl]-sulfamide]	93 to 106		
O=C(NS(=O)(=O)CCN1CCC(Oc2ccc(Cl)c(Cl)c2)CC1)c1ccccc1Cl [Example 19, N-(2-Chlorobenzoyl)-4-(3,4-dichlorophenoxy)-1-piperidineethanesulfonamide]	237 to 239		
Cc1ccc(S(=O)(=O)NC(=O)CCN2CCC(Oc3ccc(Cl)c(Cl)c3)CC2)cc1 [Example 20, N-[3-[4-(3,4-dichlorophenoxy)-1-piperidinyl]-1-oxopropyl]4-methyl-benzenesulfonamide]	177 to 179		
Cc1ccc(S(=O)(=O)NC(=O)NCCN2CCC(Oc3ccc(Cl)c(Cl)c3)CC2)cc1 [Example 1, N-[[[2-[4-(3,4-dichlorophenoxy)-1-piperidinyl]ethyl]amino]carbonyl]-4-methyl-benzenesulfonamide]	179.6 to 180.3	H1 antagonist	antagonist
